In US10717746B2, “Chemical compounds” (ASTRAZENECA AB, priority 2015, dated 2020):

Legend:
[1] = molecular target: T1, CDK9/CycT1 (Homo sapiens (Human), UniProt P50750); test: CDK9 kinase assay, ATP concentration at Km (mobility shift, Caliper LC3000); type: biochemical; conditions: 6 μM ATP, 3 nM CDK9/CycT1; read-out: CDK9 ATP conc. at Km (IC50)
Protocol: (§1) Activity of CDK9 was determined in-vitro using a mobility shift assay on a Caliper LC3000 reader (Caliper/PerkinElmer), which measures fluorescence of a phosphorylated and unphosphorylated fluorescent peptide substrate and calculates a ratiometric value to determine percent turnover. Phosphorylation of the peptide in the presence and absence of the compound of interest was determined. Enzyme/substrate/adenosine triphosphate (ATP) mix (3 nM CDK9/CycT1, 6 μM ATP, 1.5 μM CDK9 peptide substrate (FITC-X-GSRTPMY-NH2 (X: epsilon aminocaproic acid)), 50 mM HEPES (pH7.2), 1 mM dithiothreitol, 0.01% tween 20, 50 μg/mL bovine serum albumin, (final assay concentration)) (5 μl) was preincubated with 2 μl of compound for 15 minutes at 25° C. Reactions were initiated with 5 μl of 24 mM MgCl2 (10 mM final assay concentration) in buffer (50 mM HEPES (pH7.2), 1 mM dithiothreitol, 0.01% tween 20, 50 μg/mL bovine serum albumin, (final assay concentration) and incubated at 25° C. for 90 minutes and reactions were stopped by addition of 5 μl of Stop mix consisting of 65 mM HEPES (pH7.2), 35.5 mM EDTA, 0.227% Coatin Reagent 3 (Caliper/PerkinElmer), and 0.003% Tween. Phosphorylated and unphosphorylated substrate was detected by a Caliper LC3000 reader (Caliper/PerkinElmer) in the presence of separation buffer consisting of 100 mM HEPES (pH7.2), 15.8 mM EDTA, 0.1% Coatin Reagent 3 (Caliper/PerkinElmer), 0.015% Brij-35, 5% DMSO, and 5.6 mM MgCl2. CDK9 enzyme was acquired from Carna Biosciences (Catalogue number 04-110), the CDK9 peptide substrate was acquired from Intonation (Boston, Mass.; Custom-made).

[2] = molecular target: T1, CDK9/CycT1; test: CDK9 kinase assay, high ATP concentration (5 mM ATP); type: biochemical; conditions: 1.5 nM CDK9, read-out: CDK9 High ATP conc. (IC50)
Protocol: as §1
High ATP assays were run the same way with the following modifications: the final assay concentration of CDK9 was 1.5 nM and the final assay concentration of ATP was 5 mM.

[3] = tested on: phosphorylation of RNA Polymerase II (RNAPII) at the Ser2 site in MCF7 cells; test: MCF7 pSer2 RNAPII MOA assay (immunofluorescence); type: cell-based; conditions: Homo sapiens, MCF7, 6 h, 6-hr treatment, read-out: p-Ser 2 RNAPII (IC50)
Protocol: MCF7 pSer2 RNAPII MOA Assay
This is an immunofluorescence assay to determine the effect of CDK9 inhibitors on phosphorylation of RNA Polymerase II (RNAPII) at the Ser2 site in the breast cancer cell line, MCF7. On day one, 2500 MCF7 cells/well were seeded in 30 μl of growth media (RPMI+10% FBS+1% L-Glu+P/S) in 384-well black-wall clear-bottom plates, incubate plates overnight at 37° C. incubator. On the second day, the cells were treated with CDK9 inhibitors (7 point dose response ranging from 3 μM to 0.004 μM) using an ECHO liquid handler (Labcyte). After 6-hr treatment at 37° C. incubator, the cells were fixed with 30 µl/well 7.4% paraformaldehyde for 15 min at room temperature; the cells were washed twice with PBS, then permeabilized with 0.3% Triton X/PBS for 5 min at room temperature. After washing cells with PBS, the cells were incubated with 1:2000 diluted Anti-Ser2 Phospho-RNA pol II antibody (Covance MMS-129R) in 3% FBS/0.1% PBST overnight at 4° C. On the next day, the cells were washed twice with 0.1% PBST, then incubated with 1:1000 diluted Alexa Fluor 488 Goat-anti-mouse antibody (Life Technologies A-11001) and 1:4000 diluted DAPI at room temperature in dark. After one hour incubation, the cells were washed twice with 0.1% PBST, and once with PBS. The plates where sealed and read on an Acumen eX3 microplate cytometer (TTP Labtech) to assess phosphorylation level in each well.

[4] = tested on: MV411 cells; test: MV411 caspase activity assay (Caspase-Glo 3/7); type: cell-based; conditions: Homo sapiens, MV4-11, 6 h, 6-hr treatment, caspase 3/7 induction
Protocol: MV411 Caspase Activity Assay
This is a cell assay to measure the induction of caspase activity in the acute myeloid leukemia cell line, MV411 after 6-hr treatment with CDK9 inhibitors. On the first day, 3000 MV411 cells/well were seeded in 50 μl of growth media (IMDM+10% FBS+2% L-Glu+P/S) in 384-well white plates, incubate plates in 37° C. incubator overnight. […] After 6 hour incubation in 37° C. incubator, 25 μl of Caspase-Glo 3/7 reagent (Promega) per well was added into each well, and plates were incubated at room temperature for 30 min in dark. The plates were read on an Infinite M200 microplate reader (Tecan) with a 100 ms integration time.

T1 sequence (P50750 whole entry): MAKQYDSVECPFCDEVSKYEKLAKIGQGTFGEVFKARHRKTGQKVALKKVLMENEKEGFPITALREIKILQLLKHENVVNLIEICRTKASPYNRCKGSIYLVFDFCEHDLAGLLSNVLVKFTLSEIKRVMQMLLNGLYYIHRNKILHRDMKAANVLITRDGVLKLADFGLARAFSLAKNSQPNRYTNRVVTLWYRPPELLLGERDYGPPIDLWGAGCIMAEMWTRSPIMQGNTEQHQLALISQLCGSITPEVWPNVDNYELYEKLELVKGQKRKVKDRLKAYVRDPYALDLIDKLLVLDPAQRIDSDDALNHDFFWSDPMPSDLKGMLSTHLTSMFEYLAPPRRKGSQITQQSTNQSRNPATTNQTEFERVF
T1 sequence (O60563 whole entry partner): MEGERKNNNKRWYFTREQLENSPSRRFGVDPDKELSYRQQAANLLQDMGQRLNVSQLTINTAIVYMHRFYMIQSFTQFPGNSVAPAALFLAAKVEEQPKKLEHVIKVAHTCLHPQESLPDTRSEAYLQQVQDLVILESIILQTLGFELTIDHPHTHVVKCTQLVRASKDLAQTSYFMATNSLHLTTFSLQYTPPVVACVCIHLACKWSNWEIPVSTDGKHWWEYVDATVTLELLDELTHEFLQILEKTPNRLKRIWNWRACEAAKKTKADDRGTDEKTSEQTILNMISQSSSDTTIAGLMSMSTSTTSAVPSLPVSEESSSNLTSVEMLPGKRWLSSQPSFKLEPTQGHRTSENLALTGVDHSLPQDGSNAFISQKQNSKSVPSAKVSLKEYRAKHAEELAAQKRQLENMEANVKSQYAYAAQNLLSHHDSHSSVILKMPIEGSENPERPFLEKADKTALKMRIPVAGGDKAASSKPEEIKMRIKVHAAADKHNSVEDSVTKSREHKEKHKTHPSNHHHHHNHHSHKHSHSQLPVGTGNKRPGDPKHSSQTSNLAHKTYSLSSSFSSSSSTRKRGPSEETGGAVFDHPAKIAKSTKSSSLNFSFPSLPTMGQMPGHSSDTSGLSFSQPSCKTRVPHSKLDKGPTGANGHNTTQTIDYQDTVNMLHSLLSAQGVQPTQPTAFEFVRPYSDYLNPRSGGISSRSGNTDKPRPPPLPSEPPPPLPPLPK

Structure (SMILES) | IC50 [1] | IC50 [2] | IC50 [3] | IC50 [4]
CC(=O)N[C@@H]1CCC[C@H](C(=O)Nc2cc(-c3cnn4c3CC(C)(C)C4)ccn2)C1 [Example 16, (1S,3R)-3-acetamido-N-(4-(5,5-dimethyl-5,6-dihydro-4H-pyrrolo[1,2-b]pyrazol-3-yl)pyridin-2-yl)cyclohexanecarboxamide] | < 0.003 µM | 0.028 µM | 0.15 µM | 0.1 µM
CC1(C)Cc2c(-c3ccnc(NC(=O)[C@H]4CCC[C@@H](NC(=O)C5(O)CC5)C4)c3)cnn2C1 [Example 17, (1S,3R)—N-(4-(5,5-dimethyl-5,6-dihydro-4H-pyrrolo[1,2-b]pyrazol-3-yl)pyridin-2-yl)-3-(1-hydroxycyclopropanecarboxamido)cyclohexanecarboxamide] | 0.004 µM | 0.036 µM | 0.207 µM | 0.14 µM
CC1(C)Cc2c(-c3ccnc(NC(=O)[C@H]4CCC[C@@H](NC(=O)C5COC5)C4)c3)cnn2C1 [Example 18, N-((1R,3S)-3-((4-(5,5-dimethyl-5,6-dihydro-4H-pyrrolo[1,2-b]pyrazol-3-yl)pyridin-2-yl)carbamoyl)cyclohexyl)oxetane-3-carboxamide] | < 0.003 µM | 0.014 µM | 0.122 µM | 0.071 µM
CC1(C)Cc2c(-c3cc(NC(=O)[C@H]4CCC[C@@H](NC(=O)C5COC5)C4)ncc3Cl)cnn2C1 [Example 19, N-((1R,3S)-3-((5-chloro-4-(5,5-dimethyl-5,6-dihydro-4H-pyrrolo[1,2-b]pyrazol-3-yl)pyridin-2-yl)carbamoyl)cyclohexyl)oxetane-3-carboxamide] | < 0.003 µM | < 0.003 µM | 0.013 µM | 0.011 µM
C[C@H](O)C(=O)N[C@@H]1CCC[C@H](C(=O)Nc2cc(-c3cnn4c3CC(C)(C)C4)c(Cl)cn2)C1 [Example 20, (1S,3R)—N-(5-chloro-4-(5,5-dimethyl-5,6-dihydro-4H-pyrrolo[1,2-b]pyrazol-3-yl)pyridin-2-yl)-3-((S)-2-hydroxypropanamido)cyclohexanecarboxamide] | < 0.003 µM | < 0.003 µM | 0.01 µM | 0.014 µM

Next, values leading:

IC50 [1] | IC50 [2] | IC50 [3] | IC50 [4] | Structure (SMILES)
0.005 µM | 0.35 µM | 0.83 µM | 0.701 µM | CC(=O)N[C@@H]1CCC[C@H](C(=O)Nc2cc(-c3cnc4n3CCC4)c(Cl)cn2)C1 [Example 12, (1S,3R)-3-acetamido-N-(5-chloro-4-(6,7-dihydro-5H-pyrrolo[1,2-a]imidazol-3-yl)pyridin-2-yl)cyclohexanecarboxamide]
0.006 µM | 0.24 µM | 0.82 µM | 0.914 µM | CC(=O)N[C@@H]1CCC[C@H](C(=O)Nc2cc(-c3cnn4c3CN(C)CC4)c(Cl)cn2)C1 [Example 13, (1S,3R)-3-acetamido-N-(5-chloro-4-(5-methyl-4,5,6,7-tetrahydropyrazolo[1,5-a]pyrazin-3-yl)pyridin-2-yl)cyclohexanecarboxamide]
0.005 µM | 0.35 µM | 1.3 µM | 0.669 µM | CC(=O)N[C@@H]1CCC[C@H](C(=O)Nc2cc(-c3cnn4c3NCCC4)c(Cl)cn2)C1 [Example 15, (1S,3R)-3-acetamido-N-(5-chloro-4-(4,5,6,7-tetrahydropyrazolo[1,5-a]pyrimidin-3-yl)pyridin-2-yl)cyclohexanecarboxamide]
< 0.003 µM | < 0.003 µM | < 0.007 µM | 0.013 µM | CC1(C)Cc2c(-c3cc(NC(=O)[C@H]4CCC[C@@H](NC(=O)C5(O)CC5)C4)ncc3Cl)cnn2C1 [Example 21, (1S,3R)—N-(5-chloro-4-(5,5-dimethyl-5,6-dihydro-4H-pyrrolo[1,2-b]pyrazol-3-yl)pyridin-2-yl)-3-(1-hydroxycyclopropanecarboxamido)cyclohexanecarboxamide]
